Laboratory results reported in patent publication US8163793B2, “Proline derivatives” (Hoffman-La Roche Inc., priority 2009, dated 2012).
Where a name gives a salt, the structure may show the parent alone.

Columns and labels:
[1] = target: Cathepsin S (UniProt P25774); experiment: Cathepsin enzyme inhibition assay (fluorogenic peptide substrate Z-Val-Val-Arg-AMC), Cathepsin S; assay type: biochemical, human and mouse; conditions: enzyme 1 nM, substrate 20 μM, pH 6.5; read-out: CatS IC50
Outline: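 Human or mouse cathepsin S (1 nM) was run in 100 mM potassium phosphate pH 6.5 with 5 mM EDTA, 0.001% Triton X-100 and 5 mM DTT. The rise in AMC fluorescence from cleavage was measured, and IC50 values were calculated by standard methods and expressed in μM.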

[2] = target: Cat L (UniProt P07711); experiment: Cathepsin enzyme inhibition assay (fluorogenic peptide substrate Z-Val-Val-Arg-AMC), Cathepsin L; assay type: biochemical, human and mouse; conditions: enzyme 1 nM, substrate 20 μM, pH 6.5; read-out: CatL IC50
Outline: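 Cathepsin L at 1 nM was mixed with compound, then started with 20 μM Z-Val-Val-Arg-AMC in pH 6.5 potassium phosphate with EDTA, Triton X-100 and 5 mM DTT. AMC fluorescence (ex 360/em 465 nm) was followed over 20 min. IC50 is given in μM.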

| SMILES | IC50 [1] [nM] | IC50 [2] [nM] |
| --- | --- | --- |
| N#CC1(NC(=O)[C@@H]2C[C@@H](S(=O)(=O)c3ccccc3Cl)CN2C(=O)c2ccccc2)CC1 [Example 75, (2S,4R)-1-Benzoyl-4-(2-chloro-benzenesulfonyl)-pyrrolidine-2-carboxylic acid (1-cyano-cyclopropyl)-amide] | 0.8 | 6790 |
| N#CC1(NC(=O)[C@@H]2C[C@@H](S(=O)(=O)c3ccccc3Cl)CN2CCc2ccccc2)CC1 [Example 87, (2S,4R)-4-(2-Chloro-benzenesulfonyl)-1-phenethyl-pyrrolidine-2-carboxylic acid (1-cyano-cyclopropyl)-amide] | 37.5 | 4720 |
| Cc1cc(N2C[C@H](S(=O)(=O)c3ccccc3Cl)C[C@H]2C(=O)NC2(C#N)CC2)n(C2CCS(=O)(=O)CC2)n1 [Example 479, (2S,4R)-4-[(2-Chlorophenyl)sulfonyl]-N-(1-cyanocyclopropyl)-1-[1-(1,1-dioxidotetrahydro-2H-thiopyran-4-yl)-3-methyl-1H-pyrazol-5-yl]-L-prolinamide] | 3.24 | 3070 |
| COCCOc1ccc(S(=O)(=O)[C@@H]2CC(C(=O)NC3(C#N)CC3)N(C(=O)C3(c4ccc(Cl)nc4)CC3)C2)c(Cl)c1 (stereo partly drawn) [Example 378, (R)-4-[2-Chloro-4-(2-methoxy-ethoxy)-benzenesulfonyl]-1-[1-(6-chloro-pyridin-3-yl)-cyclopropanecarbonyl]-pyrrolidine-2-carboxylic acid (1-cyano-cyclopropyl)-amide] | 0.1 | 200 |
| CC(C)(C)OC(=O)N1C[C@H](S(=O)(=O)c2c(Cl)cccc2Cl)C[C@H]1C(=O)NC1(C#N)CC1 [Example 5, (2S,4R)-2-(1-Cyano-cyclopropylcarbamoyl)-4-(2,6-dichloro-benzenesulfonyl)-pyrrolidine-1-carboxylic acid tert-butyl ester] | 0.8 | 9770 |
| COc1cc(C2(C(=O)N3C[C@H](S(=O)(=O)c4ccccc4Cl)C[C@H]3C(=O)NC3(C#N)CC3)CC2)c(Cl)cc1Cl [Example 460, (2S,4R)-4-(2-Chloro-benzenesulfonyl)-1-[1-(2,4-dichloro-5-methoxy-phenyl)-cyclopropanecarbonyl]-pyrrolidine-2-carboxylic acid (1-cyano-cyclopropyl)-amide] | 5.85 | 52.5 |
| N#CC1(NC(=O)[C@@H]2C[C@@H](S(=O)(=O)c3ccc(OCC(F)(F)F)cc3Cl)CN2C(=O)C(c2ccc(Cl)cc2)c2ccc(Cl)cc2)CC1 [Example 275, (2S,4R)-1-[2,2-Bis-(4-chloro-phenyl)-acetyl]-4-[2-chloro-4-(2,2,2-trifluoro-ethoxy)-benzenesulfonyl]-pyrrolidine-2-carboxylic acid (1-cyano-cyclopropyl)-amide] | 0.38 | 2680 |
| N#CC1(NC(=O)[C@@H]2C[C@@H](S(=O)(=O)c3ccc(OCC(F)(F)F)cc3Cl)CN2C(=O)C2(c3ccccc3)CCCCC2)CC1 [Example 303, (2S,4R)-4-[2-Chloro-4-(2,2,2-trifluoro-ethoxy)-benzenesulfonyl]-1-(1-phenyl-cyclohexanecarbonyl)-pyrrolidine-2-carboxylic acid (1-cyano-cyclopropyl)-amide] | 0.03 | 1480 |
| CC(C)(C)OC(=O)N1C[C@H](S(=O)(=O)c2ccc(OCCN3CCCCC3)cc2Cl)C[C@H]1C(=O)NC1(C#N)CC1 [Example 139, (2S,4R)-4-[2-Chloro-4-(2-piperidin-1-yl-ethoxy)-benzenesulfonyl]-2-(1-cyano-cyclopropylcarbamoyl)-pyrrolidine-1-carboxylic acid tert.-butyl ester] | 7.8 | ≥ 25000 |
| N#CC1(NC(=O)[C@@H]2C[C@@H](S(=O)(=O)c3ccccc3Cl)CN2C(=O)Cn2ccc(C(F)(F)F)n2)CC1 [Example 422, (2S,4R)-4-(2-Chloro-benzenesulfonyl)-1-[2-(3-trifluoromethyl-pyrazol-1-yl)-acetyl]-pyrrolidine-2-carboxylic acid (1-cyano-cyclopropyl)-amide] | 1.85 | 4360 |
| N#CC1(NC(=O)[C@@H]2C[C@@H](S(=O)(=O)c3ccccc3Cl)CN2C(=O)C2(CO)CC2)CC1 [Example 452, (2S,4R)-4-(2-Chloro-benzenesulfonyl)-1-(1-hydroxymethyl-cyclopropanecarbonyl)-pyrrolidine-2-carboxylic acid (1-cyano-cyclopropyl)-amide] | 1.17 | 7930 |

Now from value to compound:

| IC50 [1] [nM] | IC50 [2] [nM] | SMILES |
| --- | --- | --- |
| 68.3 | ≥ 25000 | Cc1cc(N2C[C@H](S(=O)(=O)c3ccccc3C(F)(F)F)C[C@@H]2C(=O)NC2(C#N)CC2)n(Cc2ccccc2)n1 [Example 321, (2R,4R)-1-(2-Benzyl-5-methyl-2H-pyrazol-3-yl)-4-(2-trifluoromethyl-benzenesulfonyl)-pyrrolidine-2-carboxylic acid (1-cyano-cyclopropyl)-amide] |
| 0.24 | 293 | N#CC1(NC(=O)C2C[C@@H](S(=O)(=O)c3ccc(OCC(F)(F)F)cc3Cl)CN2C(=O)C2(c3ccc(Cl)nc3)CC2)CC1 (stereo in doubt) [Example 377, (R)-1-[1-(6-Chloro-pyridin-3-yl)-cyclopropanecarbonyl]-4-[2-chloro-4-(2,2,2-trifluoro-ethoxy)-benzenesulfonyl]-pyrrolidine-2-carboxylic acid (1-cyano-cyclopropyl)-amide] |
| 0.6 | 8800 | N#CC1(NC(=O)[C@@H]2C[C@@H](S(=O)(=O)c3ccc(Cl)cc3Cl)CN2C(=O)C2(C(F)(F)F)CC2)CC1 [Example 168, (2S,4R)-4-(2,4-Dichloro-benzenesulfonyl)-1-(1-trifluoromethyl-cyclopropanecarbonyl)-pyrrolidine-2-carboxylic acid (1-cyano-cyclopropyl)-amide] |
| 0.327 | ≥ 25000 | N#CC1(NC(=O)[C@@H]2C[C@@H](S(=O)(=O)c3ccc(OCC(F)(F)F)cc3C(F)(F)F)CN2c2nnc(C(F)(F)F)s2)CC1 [Example 366, (2S,4R)-4-[4-(2,2,2-Trifluoro-ethoxy)-2-trifluoromethyl-benzenesulfonyl]-1-(5-trifluoromethyl-[1,3,4]thiadiazol-2-yl)-pyrrolidine-2-carboxylic acid (1-cyano-cyclopropyl)-amide] |
| 0.885 | 50700 | Cc1cc(N2C[C@H](S(=O)(=O)c3ccccc3C(F)(F)F)C[C@H]2C(=O)NC2(C#N)CC2)n(C)n1 [Example 300, (2S,4R)-1-(2,5-Dimethyl-2H-pyrazol-3-yl)-4-(2-trifluoromethyl-benzenesulfonyl)-pyrrolidine-2-carboxylic acid (1-cyano-cyclopropyl)-amide] |
| 0.13 | 1600 | CN1CCN(c2ccc(S(=O)(=O)[C@@H]3C[C@@H](C(=O)NC4(C#N)CC4)N(C(=O)C4(C(F)(F)F)CC4)C3)c(Cl)c2)CC1 [Example 290, (2S,4R)-4-[2-Chloro-4-(4-methyl-piperazin-1-yl)-benzenesulfonyl]-1-(1-trifluoromethyl-cyclopropanecarbonyl)-pyrrolidine-2-carboxylic acid (1-cyano-cyclopropyl)-amide] |
| 0.29 | 8.06 | N#CC1(NC(=O)[C@@H]2C[C@@H](S(=O)(=O)c3ccc(OCC(F)(F)F)cc3Cl)CN2C(=O)C2(c3ccc(Br)cc3)CC2)CC1 [Example 273, (2S,4R)-1-[1-(4-Bromo-phenyl)-cyclopropanecarbonyl]-4-[2-chloro-4-(2,2,2-trifluoro-ethoxy)-benzenesulfonyl]-pyrrolidine-2-carboxylic acid (1-cyano-cyclopropyl)-amide] |
| 3 | ≥ 25000 | N#CC1(NC(=O)[C@@H]2C[C@@H](S(=O)(=O)c3ccc(N4CCOCC4=O)cc3C(F)(F)F)CN2)CC1 [Example 30, (2S,4R)-4-[4-(3-Oxo-morpholin-4-yl)-2-trifluoromethyl-benzenesulfonyl]-pyrrolidine-2-carboxylic acid (1-cyano-cyclopropyl)-amide hydrochloride] |
| 1.5 | 10800 | N#CC1(NC(=O)[C@@H]2C[C@@H](S(=O)(=O)c3ccccc3C(F)(F)F)CN2c2cc(C3CC3)nn2-c2ccc(C(F)(F)F)cc2)CC1 [Example 363, (2S,4R)-1-[5-Cyclopropyl-2-(4-trifluoromethyl-phenyl)-2H-pyrazol-3-yl]-4-(2-trifluoromethyl-benzenesulfonyl)-pyrrolidine-2-carboxylic acid (1-cyano-cyclopropyl)-amide] |
| 2.8 | ≥ 25000 | N#CC1(NC(=O)[C@@H]2C[C@@H](S(=O)(=O)c3ccc(N4CCCC4=O)cc3C(F)(F)F)CN2)CC1 [Example 26, (2S,4R)-4-[4-(2-Oxo-pyrrolidin-1-yl)-2-trifluoromethyl-benzenesulfonyl]-pyrrolidine-2-carboxylic acid (1-cyano-cyclopropyl)-amide hydrochloride] |
| 0.8 | 9770 | N#CC1(NC(=O)[C@@H]2C[C@@H](S(=O)(=O)c3ccccc3Cl)CN2C(=O)C(F)(F)F)CC1 [Example 80, (2S,4R)-4-(2-Chloro-benzenesulfonyl)-1-(2,2,2-trifluoro-acetyl)-pyrrolidine-2-carboxylic acid (1-cyano-cyclopropyl)-amide] |
| 1.65 | 57500 | Cc1cc(N2C[C@H](S(=O)(=O)c3ccc(F)cc3C(F)(F)F)C[C@H]2C(=O)NC2(C#N)CC2)n(C2CCOCC2)n1 [Example 396, (2S,4R)-4-(4-Fluoro-2-trifluoromethyl-benzenesulfonyl)-1-[5-methyl-2-(tetrahydro-pyran-4-yl)-2H-pyrazol-3-yl]-pyrrolidine-2-carboxylic acid (1-cyano-cyclopropyl)-amide] |
